According to paper PMC12876990, “Targeting secreted PLA2 interactions with EGFR and vimentin to arrest prostate tumour growth” (Cell Death & Disease, 2025):
Square brackets hold non-standard residues; d marks the D form. Peptide text beside a SMILES is read from it. 2Nal = N[C@@H](Cc1ccc2ccccc2c1)C(=O)O

Experiments:
[1] = target: T1, hGIIA/vimentin interaction (Homo sapiens, UniProt P08670); assay: Enzyme immunoassay of hGIIA binding to vimentin coil 2; conditions: in vitro; read-out: IC50, inhibition of the interaction between hGIIA and vimentin
T1 construct: Purified vimentin fragments (full length or coil 2) were seeded to a 96-well microplate at 15 μg/mL; hGIIA purified in house from conditioned medium of CHO cell line 2B1
Protocol: Prior to assay, hGIIA antibody 4A1 was conjugated to alkaline phosphatase (4A1-AP), produced using the lightning-link conjugation kit (ab102850, Abcam) as per the manufacturer’s instructions.
Purified vimentin fragments (full length or coil 2) were seeded to a 96-well microplate at 15 μg/mL with a 100 μL/well volume. After an overnight incubation at 4 °C, the plate was emptied. Each well was then blocked overnight at 4 °C with 200 μL of 1% BSA in PBS. The plate was emptied and washed with PBST (PBS + 0.05% Tween20). hGIIA solution of 100 ng/mL in PBS with 0.1% BSA was prepared with and without inhibitors c2, Withaferin A and LY311727 in DMSO with concentrations 0.1-100 µM. hGIIA working solution with 0.4% DMSO served as a positive control and PBS with 0.1% BSA served as a negative control. A 100 μL volume of each prepared hGIIA-inhibitor mixture was added to wells in triplicate and incubated at 37 °C for two hours. The plate was washed twice with PBST, then incubated with the 4A1-AP conjugate at 1 μg/mL 0.1% BSA in PBS and incubated for one hour at 37 °C. Plates were then emptied and washed three times with PBST, followed by washing twice with carbonate buffer (8 mM Na2CO3, 36 mM NaHCO3, 2 mM MgCl2, pH 9.8), before incubation with AP substrate p-nitro-phenyl phosphate (PNPP) powder at 1 mg/mL concentration in carbonate buffer. The plate was incubated at 37 °C for 60 mins then absorbance was read at 405 nm by a Spectramax M2 plate reader. All washes were a 200 µL/well volume.

[2] = 28-day oral toxicity study: gross necropsy and organ weights; format: in vivo, male Sprague Dawley rats; conditions: for Heart weight on Necropsy: n = 10, mean ± SD
Protocol: The observations were recorded in the form of a sp readsheet and attached as an app endix to the report (Appendix C Study Data Spreadsheets). […]
Haematology and Biochemistry). […]
(Appendix C Study Data Spreadsheets).
Following sacrifice by intraperitoneal injection of sodium pentobarbitone a gros s necrop sy wa s performed. This included determination of the wet weight of the liver, kidneys, adrenals, testes, spleen, thymus, heart, epididymis, prostate + semi nal vesicle s with coagulating glands as whole […]
and brain. […]
Tissues and carcas ses were placed in 10% formalin. The tissues to be processed for histopathological examinations were fixed for at least 48 hours prior to cassette preparation. […]
Slides were […]
evaluated for histology change s under light microscopy at a magnification of 100 to 1000 times.
Individual histopathology results and a summar y are attached a s an app endix to the report (Appendix E Histopathology).
3.14. Statistical analyses
Clinical observations, detailed clinical observations, functional observations, blood and urine analyses and histopathology were summarised by descriptive analysis.
Statistical analyses, consisting of unpaired t-tests, were performed on measured variables: percentage body weight gain s, food consumption and organ weights as a percentage of body weight. A significance level of P < 0.05 was used for all tests.

[3] = Day 43, Gr 5 recovery, 20 mg/kg

T1 sequence (P08670 269-407 limits assumed): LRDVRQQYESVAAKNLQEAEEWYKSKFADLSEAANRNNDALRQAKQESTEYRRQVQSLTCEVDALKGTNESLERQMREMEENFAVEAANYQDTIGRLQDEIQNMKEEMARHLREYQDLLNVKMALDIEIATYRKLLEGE

## CC(C)C[C@@H]1NC(=O)[C@H](Cc2ccc3ccccc3c2)NC(=O)[C@H](CCCNC(=N)N)NC(=O)[C@H](Cc2ccc3ccccc3c2)NC(=O)[C@H](CO)NC1=O [c2, cyclo-((2-Nal)-Leu-Ser-(2-Nal)-Arg)] (cyclo([2Nal]LS[2Nal]R))
[1]
  IC50: 56.5 µM
[2]; 1 mg/kg
  Heart weight (% body weight): 0.31 ± 0.026 % body weight
  Heart weight on Necropsy: 1.211 ± 0.1348 g
[2]; 20 mg/kg
  Heart weight (% body weight): 0.34 ± 0.025 % body weight
  Heart weight on Necropsy: 1.322 ± 0.1050 g
[2]; Day 29, Gr 2, 1 mg/kg
  Organ weight: Adrenals: 0.0454 ± 0.00783 g
  Organ weight: Spleen: 0.8031 ± 0.0637 g
  effect on organ weights as a percentage of body weight: did not have any effect
  macroscopic changes at necropsy: No gross abnormalities
[2]; Day 29, Gr 3, 20 mg/kg
  Organ weight: Adrenals: 0.0473 ± 0.00889 g
  effect on organ weights as a percentage of body weight: did not have any effect
  macroscopic changes at necropsy: No gross abnormalities
[2]; [3]
  Organ weight (% body weight): Adrenals: 0.0097 ± 0.00158%
  Organ weight: Adrenals: 0.0443 ± 0.0061 g
  effect on organ weights as a percentage of body weight: did not have any effect
  macroscopic changes at necropsy: No gross abnormalities
